Test results from PubChem BioAssay AID2060910 (Molecular Pharmacology Branch, DTP, NCI, 2025).

Tested on: 242566-281-R-J2-PDC complex spheroid viability
Test: Anticancer human tumor 242566-281-R-J2-PDC patient-derived pancreatic carcinoma cell line growth inhibition [RAS]
Conditions: for IC50: curve of first compound; for viability, T/C: stronger effect = lower value
Procedure, shortened: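 Multi-cell-type spheroids: tumor cells plus HUVEC endothelial cells and mesenchymal stem cells. RAS-pathway inhibitors were combined with targeted agents, each dosed in half-log steps down from clinical Cmax, or from 10 microM when Cmax was unknown.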
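Also: spheroids exposed to compound for 7 days before readout.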
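For viability, T/C in this document: 100% = DMSO vehicle control wells.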

C=CC(=O)N1CCN(c2nc(OCC3CCCN3C)nc3c(F)c(-c4nc(N)cc(C)c4C(F)(F)F)c(Cl)cc23)C(C)C1 (centres undefined) + CCn1c(-c2cc(N3CCN(C)CC3)cnc2C(C)OC)c2c3cc(ccc31)-c1csc(n1)CC(NC(=O)C1CC1C)C(=O)N1CCCC(N1)C(=O)OCC(C)(C)C2 was tested, and the IC50 (second compound 0.000949 µM) was > 1000 nM, the IC50 (second compound 0.003 µM) was > 1000 nM and the IC50 (second compound 0.00949 µM) was < 3.16 nM. For the same molecule, the IC50 (second compound 0.03 µM) was < 3.16 nM, the IC50 (second compound 0.0949 µM) was < 3.16 nM and the IC50 (second compound 0.3 µM) was < 3.16 nM. It also gave a viability, T/C (second compound 0.000949 µM, first compound 0.00316 µM) of 91.5%, a viability, T/C (second compound 0.000949 µM, first compound 0.01 µM) of 90.3% and a viability, T/C (second compound 0.000949 µM, first compound 0.0316 µM) of 69.8%. It also gave a viability, T/C (second compound 0.000949 µM, first compound 0.1 µM) of 96.7%, a viability, T/C (second compound 0.000949 µM, first compound 0.316 µM) of 86.9% and a viability, T/C (second compound 0.000949 µM, first compound 1 µM) of 59.6%. It also gave a viability, T/C (second compound 0.003 µM, first compound 0.00316 µM) of 80.6%, a viability, T/C (second compound 0.003 µM, first compound 0.01 µM) of 62.2% and a viability, T/C (second compound 0.003 µM, first compound 0.0316 µM) of 67.8%. The viability, T/C (second compound 0.003 µM, first compound 0.1 µM) was 70.5%, the viability, T/C (second compound 0.003 µM, first compound 0.316 µM) was 76.5% and the viability, T/C (second compound 0.003 µM, first compound 1 µM) was 51.7%. For the same molecule, the viability, T/C (second compound 0.00949 µM, first compound 0.00316 µM) was 46.6%, the viability, T/C (second compound 0.00949 µM, first compound 0.01 µM) was 39.8% and the viability, T/C (second compound 0.00949 µM, first compound 0.0316 µM) was 44.3%. For the same molecule, the viability, T/C (second compound 0.00949 µM, first compound 0.1 µM) was 47.3%, the viability, T/C (second compound 0.00949 µM, first compound 0.316 µM) was 43.1% and the viability, T/C (second compound 0.00949 µM, first compound 1 µM) was 41.3%. The viability, T/C (second compound 0.03 µM, first compound 0.00316 µM) was 33.7%, the viability, T/C (second compound 0.03 µM, first compound 0.01 µM) was 32.1% and the viability, T/C (second compound 0.03 µM, first compound 0.0316 µM) was 30.3%. It also gave a viability, T/C (second compound 0.03 µM, first compound 0.1 µM) of 30.5%, a viability, T/C (second compound 0.03 µM, first compound 0.316 µM) of 23.8% and a viability, T/C (second compound 0.03 µM, first compound 1 µM) of 26.9%. The viability, T/C (second compound 0.0949 µM, first compound 0.00316 µM) was 25.1%, the viability, T/C (second compound 0.0949 µM, first compound 0.01 µM) was 22.6% and the viability, T/C (second compound 0.0949 µM, first compound 0.0316 µM) was 23.1%. The viability, T/C (second compound 0.0949 µM, first compound 0.1 µM) was 24.5%, the viability, T/C (second compound 0.0949 µM, first compound 0.316 µM) was 20.1% and the viability, T/C (second compound 0.0949 µM, first compound 1 µM) was 26%. The viability, T/C (second compound 0.3 µM, first compound 0.00316 µM) was 21.6%, the viability, T/C (second compound 0.3 µM, first compound 0.01 µM) was 20.6% and the viability, T/C (second compound 0.3 µM, first compound 0.0316 µM) was 21.7%. For the same molecule, the viability, T/C (second compound 0.3 µM, first compound 0.1 µM) was 20.6%, the viability, T/C (second compound 0.3 µM, first compound 0.316 µM) was 19.8% and the viability, T/C (second compound 0.3 µM, first compound 1 µM) was 20.2%.
CC1(C)CCC(Nc2ncc(C(F)(F)F)c(-c3c[nH]c4c(P(C)(C)=O)c(C#N)ccc34)n2)CN1 (centres undefined) + CCn1c(-c2cc(N3CCN(C)CC3)cnc2C(C)OC)c2c3cc(ccc31)-c1csc(n1)CC(NC(=O)C1CC1C)C(=O)N1CCCC(N1)C(=O)OCC(C)(C)C2 was tested, and the IC50 (second compound 0.000949 µM) was > 300 nM, the IC50 (second compound 0.003 µM) was > 300 nM and the IC50 (second compound 0.00949 µM) was < 0.949 nM. The IC50 (second compound 0.03 µM) was < 0.949 nM, the IC50 (second compound 0.0949 µM) was < 0.949 nM and the IC50 (second compound 0.3 µM) was < 0.949 nM. It also gave a viability, T/C (second compound 0.000949 µM, first compound 0.000949 µM) of 101%, a viability, T/C (second compound 0.000949 µM, first compound 0.003 µM) of 98% and a viability, T/C (second compound 0.000949 µM, first compound 0.00949 µM) of 73.5%. The viability, T/C (second compound 0.000949 µM, first compound 0.03 µM) was 88%, the viability, T/C (second compound 0.000949 µM, first compound 0.0949 µM) was 85.3% and the viability, T/C (second compound 0.000949 µM, first compound 0.3 µM) was 61.3%. It also gave a viability, T/C (second compound 0.003 µM, first compound 0.000949 µM) of 81.6%, a viability, T/C (second compound 0.003 µM, first compound 0.003 µM) of 69.6% and a viability, T/C (second compound 0.003 µM, first compound 0.00949 µM) of 63.8%. For the same molecule, the viability, T/C (second compound 0.003 µM, first compound 0.03 µM) was 67.8%, the viability, T/C (second compound 0.003 µM, first compound 0.0949 µM) was 68.3% and the viability, T/C (second compound 0.003 µM, first compound 0.3 µM) was 48.8%. The viability, T/C (second compound 0.00949 µM, first compound 0.000949 µM) was 49.6%, the viability, T/C (second compound 0.00949 µM, first compound 0.003 µM) was 39.9% and the viability, T/C (second compound 0.00949 µM, first compound 0.00949 µM) was 45.5%. It also gave a viability, T/C (second compound 0.00949 µM, first compound 0.03 µM) of 39.3%, a viability, T/C (second compound 0.00949 µM, first compound 0.0949 µM) of 35.5% and a viability, T/C (second compound 0.00949 µM, first compound 0.3 µM) of 36%. For the same molecule, the viability, T/C (second compound 0.03 µM, first compound 0.000949 µM) was 30.7%, the viability, T/C (second compound 0.03 µM, first compound 0.003 µM) was 32.9% and the viability, T/C (second compound 0.03 µM, first compound 0.00949 µM) was 30.2%. It also gave a viability, T/C (second compound 0.03 µM, first compound 0.03 µM) of 27.8%, a viability, T/C (second compound 0.03 µM, first compound 0.0949 µM) of 19.6% and a viability, T/C (second compound 0.03 µM, first compound 0.3 µM) of 27.2%. For the same molecule, the viability, T/C (second compound 0.0949 µM, first compound 0.000949 µM) was 22.5%, the viability, T/C (second compound 0.0949 µM, first compound 0.003 µM) was 24.8% and the viability, T/C (second compound 0.0949 µM, first compound 0.00949 µM) was 21.6%. For the same molecule, the viability, T/C (second compound 0.0949 µM, first compound 0.03 µM) was 21.6%, the viability, T/C (second compound 0.0949 µM, first compound 0.0949 µM) was 19.4% and the viability, T/C (second compound 0.0949 µM, first compound 0.3 µM) was 23.6%. The viability, T/C (second compound 0.3 µM, first compound 0.000949 µM) was 21.6%, the viability, T/C (second compound 0.3 µM, first compound 0.003 µM) was 19.4% and the viability, T/C (second compound 0.3 µM, first compound 0.00949 µM) was 21.3%. It also gave a viability, T/C (second compound 0.3 µM, first compound 0.03 µM) of 17.5%, a viability, T/C (second compound 0.3 µM, first compound 0.0949 µM) of 18.6% and a viability, T/C (second compound 0.3 µM, first compound 0.3 µM) of 18.3%.
